{
  "source": "paper PMC8715119",
  "about": "“Second-generation non-hematopoietic erythropoietin-derived peptide for neuroprotection” (Redox Biology, 2021)",
  "molecules": {"B1": {"name": "ML1 (peptide, UniProt P01588 118-140, looked up)", "peptide": "LQLHVDKAVSGLRSLTTLLRALG", "notes": "Monomeric peptide; also called ML1 prototype; source: synthetic peptide (solid-phase synthesis, monomer, >95% purity; bought: Peptron Inc.)"}},
  "key": {"EPOR": {"tested_on": "EPOR", "conditions": "as previously reported; cited from earlier work", "method": "(§1) All peptides including ML1, ML1-c1, ML1-c2, ML1-c3, ML1-h1, ML1-h2, and ML1-h3 were synthesized as monomers by solid-phase peptide synthesis. […] To evaluate the purity and concentration of the peptides, LC/MSD (HP 1100 series) and HPLC analyses (SHIMADZU prominence HPLC) were performed. We obtained peptides having >95% purity and then dissolved with DMSO or water as a high ..."}, "[1]": {"conditions": "as previously reported; cited from earlier work", "method": "as §1"}, "EphB4 (Homo sapiens)": {"target": "EphB4 (Homo sapiens) (UniProt P54760)", "sequence (P54760 16-539)": "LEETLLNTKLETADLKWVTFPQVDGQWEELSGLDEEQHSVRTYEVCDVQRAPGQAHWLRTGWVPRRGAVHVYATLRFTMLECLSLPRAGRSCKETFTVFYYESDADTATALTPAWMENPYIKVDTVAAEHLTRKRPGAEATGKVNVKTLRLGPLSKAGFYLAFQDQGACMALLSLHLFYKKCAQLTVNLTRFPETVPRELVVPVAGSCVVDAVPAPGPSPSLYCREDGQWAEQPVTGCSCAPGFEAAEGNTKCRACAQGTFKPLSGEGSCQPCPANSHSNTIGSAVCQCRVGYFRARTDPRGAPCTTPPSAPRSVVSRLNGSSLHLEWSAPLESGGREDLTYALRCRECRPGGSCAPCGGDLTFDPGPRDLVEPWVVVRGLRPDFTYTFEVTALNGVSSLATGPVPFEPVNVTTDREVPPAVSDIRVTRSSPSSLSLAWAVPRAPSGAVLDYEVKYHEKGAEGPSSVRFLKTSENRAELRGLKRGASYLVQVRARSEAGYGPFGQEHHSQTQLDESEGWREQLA", "conditions": "cited from earlier work"}, "[2]": {"tested_on": "undifferentiated PC12 cells", "assay": "Cell proliferation (MTS) under low serum", "assay_type": "cell-based, rat", "conditions": "0.5% fetal bovine serum, 48 h, reEPO 10 IU/ml, peptides 10 ng/ml, n = 5, Fig. 4c", "method": "PC12 cells (#CRL-1721, ATCC, USA), a rat pheochromocytoma cell line derived from the adrenal medulla (#CRL-1721, ATCC, USA), were seeded on a dish, which was coated by poly L-lysine (0.01%; Sigma Chemical Co., USA), and grown in RPMI 1640 medium (#11875093, Gibco, USA), supplemented with 10% heat-inactivated horse serum (#26050088, Gibco, USA), 5% fetal bovine serum (FBS) (#SH30919.03, Hyclone, USA), and 1% penicillin/streptomycin at 37°C with 5% CO2. […]\nCell viability was evaluated by 3-[(4,5-dimethylthiazol-2-yl)-5,3-carboxymethoxyphenyl]-2-(4-sulfophenyl)-2H tetrazolium, inner salt (MTS) reduction assay (CellTiter 96 Aqueous One Solution Cell Proliferation Assay, Promega, Madison, WI, USA). […] The intracellular soluble formazan produced by cellular reduction of the MTS was determined by recording the absorbance at 490 nm using a microplate reader (VersaMax, Molecular Devices, USA). Cell proliferation was also evaluated by the MTS assay. […] The next day, the initial cell number was counted; after 48 h, under low FBS concentration (0.5%), with or without reEPO and peptides, cell number was measured by the MTS assay."}, "[3]": {"tested_on": "differentiated neuronal PC12 cells", "assay": "Cellular ROS level by H2DCFDA under H2O2", "assay_type": "cell-based, rat", "conditions": "H2O2 for 6 h; H2DCFDA staining; n = 5; Fig. 4b", "method": "(§2) PC12 cells (#CRL-1721, ATCC, USA), a rat pheochromocytoma cell line derived from the adrenal medulla (#CRL-1721, ATCC, USA), were seeded on a dish, which was coated by poly L-lysine (0.01%; Sigma Chemical Co., USA), and grown in RPMI 1640 medium (#11875093, Gibco, USA), supplemented with 10% heat-inactivated horse serum (#26050088, Gibco, USA), 5% fetal bovine serum (FBS) (#SH30919.03, Hyclone, USA), and 1% penicillin/streptomycin at 37°C with 5% CO2. For neuronal differentiation, PC12 cells were plated at a density of 1.25x10^3 cell/cm^2 into 96-well plates coated with collagen 1 (#354236, BD Biosciences, USA) and grown in RPMI 1640 medium supplemented with 50 ng/ml nerve growth factor (NGF) (BD Biosciences, USA) and 0.5% FBS for 10 days. The NGF-supplemented media was replaced with fresh media every 3 days during neuronal differentiation.\nThe cellular ROS level was measured using 2′,7′-dichlorodihydrofluorescein diacetate (H2DCFDA) (#D399, Invitrogen, USA). The cells were incubated with 5 μM H2DCFDA in PBS for 30 min, washed with PBS, and then resuspended in the medium for 2 h. After treatment of H2O2 without or with reEPO, or peptide, we monitored the oxidative stress by measuring the fluorescence intensities of H2DCFDA by using excitation and emission wavelengths of 485 nm and 535 nm, respectively."}, "[4]": {"tested_on": "differentiated neuronal PC12 cells", "assay": "Cell viability (MTS) under H2O2-induced oxidative stress", "assay_type": "cell-based, rat", "conditions": "300 μM H2O2 for 24 h; peptides 1 ng/ml, reEPO 0.5 IU/ml; MTS; n = 3; Fig. 1c", "method": "as §2\nCell viability was evaluated by 3-[(4,5-dimethylthiazol-2-yl)-5,3-carboxymethoxyphenyl]-2-(4-sulfophenyl)-2H tetrazolium, inner salt (MTS) reduction assay (CellTiter 96 Aqueous One Solution Cell Proliferation Assay, Promega, Madison, WI, USA). Briefly, differentiated neuronal-PC12 cells were treated with H2O2 (300 μM) with or without reEPO and peptides for 24 h. The PC12 cells were washed with PBS; 20 ul MTS solution was added to each well with 100 μl PBS, and the cells were incubated for 3 h at 37°C and 5% CO2. The intracellular soluble formazan produced by cellular reduction of the MTS was determined by recording the absorbance at 490 nm using a microplate reader (VersaMax, Molecular Devices, USA). Cell proliferation was also evaluated by the MTS assay. Undifferentiated PC12 cells were seeded into a 96-well plate (5x10^4 cells/well). The next day, the initial cell number was counted; after 48 h, under low FBS concentration (0.5%), with or without reEPO and peptides, cell number was measured by the MTS assay."}, "[5]": {"target": "T1, Soluble recombinant human EPOR-Fc chimera protein (human, UniProt P19235 25-250)", "T1 construct": "erythropoietin receptor (EPOR), human, soluble form fused to Fc; the discussion says the SPR analysis was based on only the extracellular domain of EPOR; also called erythropoietin receptor; source: bought: R&D Systems (#963-ER)", "T1 sequence (looked up)": "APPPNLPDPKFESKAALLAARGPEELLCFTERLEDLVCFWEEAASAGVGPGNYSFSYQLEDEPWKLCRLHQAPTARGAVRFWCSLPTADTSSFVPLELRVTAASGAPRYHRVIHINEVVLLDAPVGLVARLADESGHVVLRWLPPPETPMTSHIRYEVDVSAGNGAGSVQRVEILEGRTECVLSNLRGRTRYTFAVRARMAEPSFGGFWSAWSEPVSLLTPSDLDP", "assay": "SPR; Reichert SR 7500 C; EPOR-Fc covalently immobilised by amine coupling on a carboxymethylated dextran chip; peptides at 5, 2.5 and 1.25 uM flowed at 5 ul/min, in duplicate; regeneration with 25 mM acetic acid", "conditions": "both partners purified"}},
  "data": [
    {"molecule": "AMELSGRTLGLILKLRQSATL [negative control peptide]", "values": [
      {"measurement": "Binding to EPOR", "setting": "EPOR", "result": "did not bind to EPOR"},
      {"measurement": "Effect on cell survival and proliferation", "setting": "[1]", "result": "unaffected cell survival and proliferation"}
    ]},
    {"molecule": "EPO (from UniProt P01588)", "values": [
      {"measurement": "Kd", "setting": "EphB4 (Homo sapiens)", "result": 880, "unit": "nM"}
    ]},
    {"molecule": "ML1: monomeric peptide spanning 118Leu-140Gly of helix C of EPO; prototype for second-generation EPO-derived peptide (LQLHVDKAVSGLRSLTTLLRALG)", "values": [
      {"measurement": "Cell proliferation (cell number)", "setting": "[2]", "result": "did not induce proliferation"},
      {"measurement": "Level of reactive oxygen species (ROS) induced by H2O2", "setting": "[3]", "result": "decreased the levels of reactive oxygen species (ROS)"},
      {"measurement": "Cell viability (neuroprotective effect) against H2O2", "setting": "[4]", "result": "a better neuroprotective effect than reEPO"}
    ]},
    {"molecule": "ML4: monomeric peptide spanning 127Ser-140Gly of helix C of EPO", "values": [
      {"measurement": "Cell viability (neuroprotective effect) against H2O2", "setting": "[4]", "result": "showed a neuroprotective effect"}
    ]},
    {"molecule": "B1", "values": [
      {"measurement": "binding result", "setting": "[5]", "result": "binds"}
    ]}
  ]
}
